Series [1] is described as follows: Evaluation of fluorescence intensity of RPS (Qraycam Pro images, fluorescence spectrometer). The format is physicochemical. As to the method:
(§1) Sterile distilled water (DW, (1)), gargle (GG, Soom Mouthwash, (2)), saliva (S (F-X), (3)) and filtered saliva (S(F-O), (4)) 100 mg/ml RPS stock formulation (plates were prepared after preparation by diluting at concentrations of 100 mg/mL, 50 mg/mL, 25 mg/mL, 12.5 mg/mL, 6.25 mg/ml, 3.12 mg/mL, 1.5 mg/mL, 0.78 mg/mL, 0.39 mg/mL, 0.19 mg/mL, and 0.1 mg/mL.
Each plate prepared was photographed with the Qraycam Pro (AIOBIO, Seoul, Korea) to obtain white light and blue light images. Then, fluorescence intensity was measured using a fluorescence spectrometer (Varioskan, excitation=405 nm/emission=520 nm).

Series [2] in a line: Highest concentration at which RPS was completely dissolved. The format is physicochemical. As to the method: as §1
A plaque staining agent, 2-tone (2T), used in clinical practice was diluted to a concentration of 10% and set as a control group. As an experimental group, two concentrations, 50 mg/mL (the highest concentration at which RPS was completely dissolved) and 0.4 mg/mL (the strongest fluorescence intensity), were selected based on the results of Experimental Example 1 above.

For `Cc1cc2nc3c(=O)[nH]c(=O)nc-3n(C[C@H](O)[C@H](O)[C@H](O)COP(=O)([O-])O)c2cc1C.[Na+]` [RPS, riboflavin 5-phosphate sodium], the “trend of fluorescence intensity with concentration” value in series [1] (fluorescence spectrometer, excitation=405 nm/emission=520 nm) was “increased from 0.01 mg/mL to 0.39 mg/mL, and then decreased again”. Also, the “concentration of the maximum fluorescence intensity” value in series [1] (fluorescence spectrometer, excitation=405 nm/emission=520 nm, all solvents (DW, gargle, saliva, filtered saliva)) is 400 µg/mL. For the same molecule, the “fluorescence colour, visual evaluation of images” value in series [1] (shift from high concentration (100 mg/mL) to low concentration) is on record as “red fluorescence was converted to green fluorescence”. The “difference in fluorescence between solvents, visual evaluation” value in series [1] (white light and blue light images, DW, gargle, saliva, filtered saliva) is “no difference in fluorescence was observed between solvents”. The “highest concentration at which RPS was completely dissolved” value in series [2] is on record as 50 mg/mL.

The values above are taken from patent US20260053723A1, “PLAQUE DISCLOSING COMPOSITION” (AIOBIO CO, LTD., priority 2020, published 2026).
